Experimental data taken from the NIST ThermoML archive (doi:10.1016/j.tca.2016.03.026).

Assays:
[1] = refractive index (Na D-line) (dimensionless); xn = mol fraction of the nth substance listed; details: 100 kPa, Liquid, Standard Abbe refractometry
[2] = xn = mol fraction of the nth substance listed; details: 100 kPa, Liquid; for speed of sound: Frequency=3 MHz, Sing-around technique in a fixed-path interferometer; for mass density: Vibrating tube method

CCCCCCCC[n+]1ccn(C)c1.F[B-](F)(F)F [1-methyl-3-octylimidazolium tetrafluoroborate] + CC(C)(C)O
Details | mass density, 298.15 K [kg/m3] | mass density, 308.15 K [kg/m3] | mass density, 318.15 K [kg/m3] | refractive index, 298.15 K | refractive index, 308.15 K | refractive index, 318.15 K | speed of sound, 298.15 K [m/s] | speed of sound, 308.15 K [m/s] | speed of sound, 318.15 K [m/s]
[1], x1 = 0.1017 | – | – | – | 1.40022 | 1.39681 | 1.39317 | – | – | –
[1], x1 = 0.1988 | – | – | – | 1.40992 | 1.40684 | 1.40405 | – | – | –
[1], x1 = 0.3011 | – | – | – | 1.41591 | 1.41342 | 1.41058 | – | – | –
[1], x1 = 0.4052 | – | – | – | 1.41962 | 1.41719 | 1.41452 | – | – | –
[1], x1 = 0.5002 | – | – | – | 1.42177 | 1.41911 | 1.41635 | – | – | –
[1], x1 = 0.604 | – | – | – | 1.42411 | 1.42168 | 1.41871 | – | – | –
[1], x1 = 0.7024 | – | – | – | 1.42628 | 1.42348 | 1.42104 | – | – | –
[1], x1 = 0.7992 | – | – | – | 1.42805 | 1.42562 | 1.42272 | – | – | –
[1], x1 = 0.9014 | – | – | – | 1.43025 | 1.42769 | 1.42513 | – | – | –
[1], x1 = 1 | – | – | – | 1.43253 | 1.42984 | 1.42715 | – | – | –
[2], x1 = 0.1017 | 858.69 | 849.64 | 840.32 | – | – | – | 1188.3 | 1157.2 | 1119.1
[2], x1 = 0.1988 | 914.56 | 906 | 897.39 | – | – | – | 1254.2 | 1221.6 | 1190.2
[2], x1 = 0.3011 | 959.49 | 951.41 | 943.34 | – | – | – | 1309.4 | 1275.6 | 1246.5
[2], x1 = 0.4052 | 994.81 | 987.25 | 979.38 | – | – | – | 1351.5 | 1322.2 | 1293.3
[2], x1 = 0.5002 | 1020.68 | 1013.4 | 1005.9 | – | – | – | 1382.5 | 1353.6 | 1324.9
[2], x1 = 0.604 | 1044.05 | 1037.31 | 1029.92 | – | – | – | 1410.1 | 1383.3 | 1354.5
[2], x1 = 0.7024 | 1062.66 | 1056.01 | 1049.1 | – | – | – | 1433.4 | 1409 | 1380.2
[2], x1 = 0.7992 | 1078.39 | 1071.8 | 1064.98 | – | – | – | 1451.3 | 1428.2 | 1402.2
[2], x1 = 0.9014 | 1092.82 | 1086.23 | 1079.48 | – | – | – | 1467.6 | 1443.3 | 1417.2
[2], x1 = 1 | 1105.02 | 1098.32 | 1091.54 | – | – | – | 1485.1 | 1458.5 | 1433.2

CCCCCCCC[n+]1ccn(C)c1.F[B-](F)(F)F [1-methyl-3-octylimidazolium tetrafluoroborate] + CC(C)CO
Details | mass density, 298.15 K [kg/m3] | mass density, 308.15 K [kg/m3] | mass density, 318.15 K [kg/m3] | refractive index, 298.15 K | refractive index, 308.15 K | refractive index, 318.15 K | speed of sound, 298.15 K [m/s] | speed of sound, 308.15 K [m/s] | speed of sound, 318.15 K [m/s]
[1], x1 = 0.1084 | – | – | – | 1.40643 | 1.40292 | 1.40008 | – | – | –
[1], x1 = 0.2056 | – | – | – | 1.41442 | 1.41142 | 1.40854 | – | – | –
[1], x1 = 0.3002 | – | – | – | 1.41922 | 1.41636 | 1.41407 | – | – | –
[1], x1 = 0.4082 | – | – | – | 1.42292 | 1.41998 | 1.41801 | – | – | –
[1], x1 = 0.4989 | – | – | – | 1.42482 | 1.42182 | 1.41925 | – | – | –
[1], x1 = 0.6024 | – | – | – | 1.42664 | 1.42372 | 1.42108 | – | – | –
[1], x1 = 0.7044 | – | – | – | 1.42845 | 1.42562 | 1.42306 | – | – | –
[1], x1 = 0.8062 | – | – | – | 1.43004 | 1.42748 | 1.42474 | – | – | –
[1], x1 = 0.8998 | – | – | – | 1.43121 | 1.42866 | 1.42604 | – | – | –
[1], x1 = 1 | – | – | – | 1.43253 | 1.42984 | 1.42715 | – | – | –
[2], x1 = 0.1084 | 876.21 | 869.11 | 860.8 | – | – | – | 1230.3 | 1198.3 | 1162.2
[2], x1 = 0.2056 | 927.81 | 920.72 | 912.57 | – | – | – | 1274.1 | 1242.4 | 1206.4
[2], x1 = 0.3002 | 966.65 | 959.59 | 951.64 | – | – | – | 1314.4 | 1282.1 | 1246.2
[2], x1 = 0.4082 | 1001.41 | 994.4 | 986.65 | – | – | – | 1354.1 | 1322.4 | 1287.5
[2], x1 = 0.4989 | 1024.88 | 1017.95 | 1010.44 | – | – | – | 1381.1 | 1351.3 | 1317.8
[2], x1 = 0.6024 | 1047.08 | 1040.26 | 1032.97 | – | – | – | 1407.2 | 1378.2 | 1347.4
[2], x1 = 0.7044 | 1065.38 | 1058.63 | 1051.52 | – | – | – | 1429.1 | 1402.1 | 1373.3
[2], x1 = 0.8062 | 1080.91 | 1074.22 | 1067.26 | – | – | – | 1447.2 | 1421.1 | 1394.3
[2], x1 = 0.8998 | 1093.3 | 1086.63 | 1079.78 | – | – | – | 1463.8 | 1437.1 | 1411.3
[2], x1 = 1 | 1105.02 | 1098.32 | 1091.54 | – | – | – | 1485.1 | 1458.5 | 1433.2

CCCCCCCC[n+]1ccn(C)c1.F[B-](F)(F)F [1-methyl-3-octylimidazolium tetrafluoroborate] + CCCCO
Details | mass density, 298.15 K [kg/m3] | mass density, 308.15 K [kg/m3] | mass density, 318.15 K [kg/m3] | refractive index, 298.15 K | refractive index, 308.15 K | refractive index, 318.15 K | speed of sound, 298.15 K [m/s] | speed of sound, 308.15 K [m/s] | speed of sound, 318.15 K [m/s]
[1], x1 = 0.1027 | – | – | – | 1.40763 | 1.40492 | 1.40232 | – | – | –
[1], x1 = 0.2022 | – | – | – | 1.41502 | 1.41254 | 1.40964 | – | – | –
[1], x1 = 0.3056 | – | – | – | 1.41903 | 1.41692 | 1.41438 | – | – | –
[1], x1 = 0.3989 | – | – | – | 1.42183 | 1.41956 | 1.41736 | – | – | –
[1], x1 = 0.5062 | – | – | – | 1.42405 | 1.42175 | 1.41965 | – | – | –
[1], x1 = 0.6018 | – | – | – | 1.42594 | 1.42362 | 1.42126 | – | – | –
[1], x1 = 0.6978 | – | – | – | 1.42791 | 1.42542 | 1.42301 | – | – | –
[1], x1 = 0.8014 | – | – | – | 1.42974 | 1.42732 | 1.42444 | – | – | –
[1], x1 = 0.9062 | – | – | – | 1.43151 | 1.42861 | 1.42615 | – | – | –
[1], x1 = 1 | – | – | – | 1.43253 | 1.42984 | 1.42715 | – | – | –
[2], x1 = 0.1027 | 878.23 | 870.62 | 862.9 | – | – | – | 1273.2 | 1240.8 | 1206.7
[2], x1 = 0.2022 | 929.75 | 922.28 | 914.69 | – | – | – | 1306.5 | 1274.7 | 1241.8
[2], x1 = 0.3056 | 970.63 | 963.3 | 955.89 | – | – | – | 1339.7 | 1308.7 | 1276.3
[2], x1 = 0.3989 | 999.88 | 992.71 | 985.42 | – | – | – | 1366.1 | 1336 | 1304.2
[2], x1 = 0.5062 | 1027.17 | 1020.16 | 1013 | – | – | – | 1392.8 | 1363.2 | 1333.3
[2], x1 = 0.6018 | 1047.22 | 1040.32 | 1033.31 | – | – | – | 1413.7 | 1384.8 | 1356
[2], x1 = 0.6978 | 1064.35 | 1057.54 | 1050.61 | – | – | – | 1431.9 | 1403.8 | 1377
[2], x1 = 0.8014 | 1080.2 | 1073.47 | 1066.62 | – | – | – | 1450.2 | 1423 | 1397.2
[2], x1 = 0.9062 | 1094.06 | 1087.36 | 1080.57 | – | – | – | 1468.3 | 1441.6 | 1416.3
[2], x1 = 1 | 1105.02 | 1098.32 | 1091.54 | – | – | – | 1485.1 | 1458.5 | 1433.2
